Assay results taken from ChEMBL document CHEMBL1944583, “Synthesis and evaluation of hexahydropyrrolo[3,4-d]isoxazole-4,6-diones as anti-stress agents” (Eur J Med Chem, 2012).
The source made the active and inactive calls.

What was measured:
Mus musculus [1] = experiment: Antistress activity in Swiss albino mouse assessed as reversal of immobilization stress-induced decrease in number of line crossing at 2 mg/kg, ip administered 60 mins before stress induction measured after 10 mins by open field test; format: functional, organism-based; design: dose 2 mg/kg
Mus musculus [2] = experiment: Antistress activity in Swiss albino mouse assessed as reversal of immobilization stress-induced decrease in frequency of rearing at 2 mg/kg, ip administered 60 mins before stress induction measured after 10 mins by open field test; format: functional, organism-based; design: dose 2 mg/kg
Mus musculus [3] = experiment: Antistress activity in Swiss albino mouse assessed as […] immobilization stress-induced decrease in non-social behavior at 2 mg/kg, ip administered 60 mins before stress induction measured after 10 mins by open field test; format: functional, organism-based; design: dose 2 mg/kg
Mus musculus [4] = experiment: Antistress activity in Swiss albino mouse assessed as reversal of immobilization stress-induced decrease in rearing at 2 mg/kg, ip administered 60 mins before stress induction measured after 10 mins by hole board test; format: functional, organism-based; design: dose 2 mg/kg
Mus musculus [5] = experiment: Antistress activity in Swiss albino mouse assessed as reversal of immobilization stress-induced decrease in locomotor activity at 2 mg/kg, ip administered 60 mins before stress induction measured every 5 mins by actophotometer test; format: functional, organism-based; design: dose 2 mg/kg
Mus musculus [6] = experiment: Antistress activity in Swiss albino mouse assessed as reversal of immobilization stress-induced decrease in frequency of head dip at 2 mg/kg, ip administered 60 mins before stress induction measured after 10 mins by hole board test; format: functional, organism-based; design: dose 2 mg/kg
Mus musculus [7] = experiment: Antistress activity in Swiss albino mouse assessed as reversal of immobilization stress-induced decrease in frequency of rearing at 10 mg/kg, ip administered 60 mins before stress induction measured after 10 mins by open field test; format: functional, organism-based; design: dose 10 mg/kg
Mus musculus [8] = experiment: Antistress activity in Swiss albino mouse assessed as reversal of immobilization stress-induced decrease in frequency of rearing at 5 mg/kg, ip administered 60 mins before stress induction measured after 10 mins by open field test; format: functional, organism-based; design: dose 5 mg/kg
Mus musculus [9] = experiment: Antistress activity in Swiss albino mouse assessed as reversal of immobilization stress-induced decrease in number of line crossing at 5 mg/kg, ip administered 60 mins before stress induction measured after 10 mins by open field test; format: functional, organism-based; design: dose 5 mg/kg
Mus musculus [10] = experiment: Antistress activity in Swiss albino mouse assessed as reversal of immobilization stress-induced decrease in rearing at 10 mg/kg, ip administered 60 mins before stress induction measured after 10 mins by hole board test; format: functional, organism-based; design: dose 10 mg/kg
Mus musculus [11] = experiment: Antistress activity in Swiss albino mouse assessed as reversal of immobilization stress-induced decrease in locomotor activity at 5 mg/kg, ip administered 60 mins before stress induction measured every 5 mins by actophotometer test; format: functional, organism-based; design: dose 5 mg/kg
Mus musculus [12] = experiment: Antistress activity in Swiss albino mouse assessed as reversal of immobilization stress-induced decrease in rearing at 5 mg/kg, ip administered 60 mins before stress induction measured after 10 mins by hole board test; format: functional, organism-based; design: dose 5 mg/kg
Mus musculus [13] = experiment: Antistress activity in Swiss albino mouse assessed as reversal of immobilization stress-induced decrease in locomotor activity at 10 mg/kg, ip administered 60 mins before stress induction measured every 5 mins by actophotometer test; format: functional, organism-based; design: dose 10 mg/kg
Mus musculus [14] = experiment: Antistress activity in Swiss albino mouse assessed as reversal of immobilization stress-induced decrease in non-social behavior at 5 mg/kg, ip administered 60 mins before stress induction measured after 10 mins by open field test; format: functional, organism-based; design: dose 5 mg/kg
[15] = Half life in Swiss albino mouse; format: ADME, organism-based; conditions: in vivo
Mus musculus [16] = experiment: Antistress activity in Swiss albino mouse assessed as reversal of immobilization stress-induced decrease in non-social behavior at 10 mg/kg, ip administered 60 mins before stress induction measured after 10 mins by open field test; format: functional, organism-based; design: dose 10 mg/kg
Mus musculus [17] = experiment: Antistress activity in Swiss albino mouse assessed as reversal of immobilization stress-induced decrease in number of line crossing at 10 mg/kg, ip administered 60 mins before stress induction measured after 10 mins by open field test; format: functional, organism-based; design: dose 10 mg/kg
Mus musculus [18] = experiment: Toxicity in Swiss albino mouse assessed as increase in frequency of rearing at 10 mg/kg, ip; format: organism-based; design: dose 10 mg/kg, route intraperitoneal; conditions: in vivo
Mus musculus [19] = experiment: Toxicity in Swiss albino mouse assessed as increase in frequency of head dips at 10 mg/kg, ip; format: organism-based; design: dose 10 mg/kg, route intraperitoneal; conditions: in vivo
Mus musculus [20] = experiment: Antistress activity in Swiss albino mouse assessed as reversal of immobilization stress-induced decrease in frequency of head dip at 10 mg/kg, ip administered 60 mins before stress induction measured after 10 mins by hole board test; format: functional, organism-based; design: dose 10 mg/kg
Mus musculus [21] = experiment: Antistress activity in Swiss albino mouse assessed as reversal of immobilization stress-induced decrease in frequency of head dip at 5 mg/kg, ip administered 60 mins before stress induction measured after 10 mins by hole board test; format: functional, organism-based; design: dose 5 mg/kg

CN1C(=O)CN=C(c2ccccc2)c2cc(Cl)ccc21
active: Activity (Mus musculus [1]) | Activity (Mus musculus [2]) | Activity (Mus musculus [3]) | Activity (Mus musculus [4]) | Activity (Mus musculus [5]) | Activity (Mus musculus [6])

O=C1[C@H]2[C@@H](c3ccccc3)N(c3ccccc3)O[C@H]2C(=O)N1c1cccc2ccccc12 (relative stereo)
inactive: Activity (Mus musculus [4]) | Activity (Mus musculus [6])
3 h: half-life [15]
active: Activity (Mus musculus [7]) | Activity (Mus musculus [8]) | Activity (Mus musculus [9]) | Activity (Mus musculus [10]) | Activity (Mus musculus [11]) | Activity (Mus musculus [12]) | Activity (Mus musculus [13]) | Activity (Mus musculus [14]) | Activity (Mus musculus [16]) | Activity (Mus musculus [17]) | Activity (Mus musculus [20]) | Activity (Mus musculus [21])
Non-toxic: Activity (Mus musculus [18]) | Activity (Mus musculus [19])

O=C1[C@@H]2[C@@H](ON(c3ccccc3)[C@H]2c2ccccc2)C(=O)N1c1cccc2ccccc12 (relative stereo)
Non-toxic: Activity (Mus musculus [18]) | Activity (Mus musculus [19])
active: Activity (Mus musculus [7]) | Activity (Mus musculus [13]) | Activity (Mus musculus [16]) | Activity (Mus musculus [17])
inactive: Activity (Mus musculus [8]) | Activity (Mus musculus [9]) | Activity (Mus musculus [11]) | Activity (Mus musculus [1]) | Activity (Mus musculus [14]) | Activity (Mus musculus [2]) | Activity (Mus musculus [3]) | Activity (Mus musculus [5])
